The test system of this test is cigarette smoke-induced COPD. Briefly: Subchronic (11 day) cigarette smoke exposure COPD model. The format is in vivo, mouse. The note with it: oral 10 mg/kg/day for 11 days. As for the experimental part: Infiltration of inflammatory cells into the bronchoalveolar lavage fluid (BALF) and BALF levels of chemokines involved in inflammation and tissue turnover/repair were measured to assess the influences of GSNOR inhibitors on some of the early events associated with the initiation and progression of COPD. […] In animal models, changes in lung pathology are only evident after extended (several months) duration of exposure to cigarette smoke, thus making chronic models prohibitive as effective screening tools. […] The key roles of inflammation in the initiation and progression of COPD, make these short duration models relevant for initial tests of efficacy of novel therapeutics. Subchronic (11 Day) Smoke Exposure Model: Female C57B1/6 mice (N=10 per group) were exposed to cigarette smoke generated from Marlboro 100 cigarettes without filters. Exposure times were 25 min. on study day 1, 35 min. on study day 2, and 45 min. on study days 3 to 11. GSNOR inhibitors were administered one hour prior to smoke exposure on each day. GSNOR inhibitors were dosed orally at 1 to 10 mg/kg/day for 11 days. The effects of GSNOR inhibitors were assessed by quantitating the number of total cells, and leukocytes differentials in the BALF via light microscopy at 24 h after the last exposure. The effect of GSNOR inhibitors were compared to vehicle treated controls and expressed as percent inhibition of the cigarette smoke induced increases in BALF cell numbers. Roflumilast was used as the positive control for the study and was dosed at 5 mg/kg/day. A group of naïve mice (N=10) was exposed to air and dosed with vehicle as a negative control for the study.

As for `O=C(O)c1ccc(-c2ccc3cc(O)ccc3c2)c(Cl)c1` [Example 1, 3-chloro-4-(6-hydroxynaphthalen-2-yl)benzoic acid], the “inhibition of smoke-induced increase in lymphocytes in BAL” value is 41%. Moreover, for the setting “p<0.05”, the “inhibition of smoke-induced increase in macrophages in BAL” value is 40%, the “inhibition of smoke-induced increase in neutrophils in BAL” value is 49% and the “inhibition of smoke-induced increase in total cells in BAL” value is 40%.
